Experimental data: ChEMBL document CHEMBL1136703, “Leporin B: a novel hexokinase II gene inducing agent from an unidentified fungus” (Bioorg Med Chem Lett, 2003)

System: L6
Test: Inhibitory concentration against induction of Hexokinase II-luci signal in the reporter cell line
Assay type: functional, cell-based
Conditions: Rattus norvegicus

With `C/C=C/C1Oc2c(-c3ccccc3)cn(O)c(=O)c2C2C(C)CCCC12` (stereo unspecified) the IC50 was 10 µM.
